As a reminder, the IC50 is the concentration needed to halve the response being measured. Lower therefore signals higher potency.

Structures are written as SMILES. The source made the active and inactive calls. No cut-off for these calls is given here.

The subject of assay [1] is HL-60. As to the kind of experiment: Induction of apoptosis in human HL60 cells assessed as formation of chromatin condensation at 10 uM after 24 hrs by Hoechst 33342 and propidium iodide staining. It counts as functional, cell-based.
For assay [2], the system named is HL-60. Nature of the assay: Induction of apoptosis in human HL60 cells assessed as formation of apoptotic body at 10 uM after 24 hrs by fluorescence microscopic analysis. It counts as functional, cell-based.
Assay [3] has as its system HL-60. Nature of the assay: Induction of apoptosis in human HL60 cells assessed as formation of cell shrinkage at 10 uM after 24 hrs by fluorescence microscopic analysis. It counts as functional, cell-based.
In assay [4] the test system is HL-60. As to the kind of experiment: Induction of apoptosis in human HL60 cells assessed as formation of membrane blebbing at 10 uM after 24 hrs by fluorescence microscopic analysis. The format is functional, cell-based.
The test system of assay [5] is HL-60. Nature of the assay: Cytotoxicity against human HL60 cells after 24 hrs by MTT assay. It counts as functional, cell-based.
The subject of assay [6] is HL-60. As to the kind of experiment: Cell cycle arrest in human HL60 cells assessed as accumulation at sub-G1 phase at 5 uM after 12 hrs using propidium iodide staining by flow cytometry (reference value: 5.2%). The format is functional. For orientation: A flow cytometer gives signals particle by particle.
The subject of assay [7] is HL-60. Nature of the assay: Cell cycle arrest in human HL60 cells assessed as accumulation at sub-G1 phase at 10 uM after 12 hrs using propidium iodide staining by flow cytometry (reference value: 5.2%). The format is functional.
Assay [8] deals with HL-60. As to the kind of experiment: Cell cycle arrest in human HL60 cells assessed as accumulation at sub-G1 phase at 5 uM after 24 hrs using propidium iodide staining by flow cytometry (reference value: 6.6%). The format is functional.
In assay [9] the test system is HL-60. Nature of the assay: Cell cycle arrest in human HL60 cells assessed as accumulation at sub-G1 phase at 10 uM after 24 hrs using propidium iodide staining by flow cytometry (reference value: 6.6%). The format is functional.
Assay [10] relates to HL-60. Nature of the assay: Cell cycle arrest in human HL60 cells assessed as accumulation at sub-G1 phase after 12 to 24 hrs using propidium iodide staining by flow cytometry. It counts as functional, cell-based.
The subject of assay [11] is HL-60. As to the kind of experiment: Cell cycle arrest in human HL60 cells assessed as accumulation at sub-G1 phase at 5 to 10 uM using propidium iodide staining by flow cytometry. Conditions: TDE = time-dependent effect. It counts as functional, cell-based.
In assay [12] the test system is HL-60. Nature of the assay: Cell cycle arrest in human HL60 cells assessed as accumulation at G0/G1 phase at 10 uM after 24 hrs using propidium iodide staining by flow cytometry. The format is functional, cell-based.
In assay [13] the test system is HL-60. As to the kind of experiment: Cell cycle arrest in human HL60 cells assessed as accumulation at G2/M phase at 10 uM after 24 hrs using propidium iodide staining by flow cytometry. It counts as functional, cell-based.
Assay [14] deals with HL-60. As to the kind of experiment: Induction of apoptosis in human HL60 cells assessed as loss of mitochondrial membrane potential using CMTMRos after 24 hrs by flow cytometry. It counts as functional, cell-based.
The test system of assay [15] is HL-60. As to the kind of experiment: Induction of apoptosis in human HL60 cells assessed as increase in Bak protein level after 24 hrs by Western blotting. It counts as functional, cell-based.
Assay [16] relates to HL-60. As to the kind of experiment: Induction of apoptosis in human HL60 cells assessed as increase in Bax protein level after 24 hrs by Western blotting. It counts as functional, cell-based. (In general: In western blotting, separated proteins are transferred to a membrane and probed.)
Assay [17] has as its system HL-60. Nature of the assay: Induction of apoptosis in human HL60 cells assessed as decrease in Bcl-2 protein level at 5 to 10 uM after 24 hrs by Western blotting. It counts as functional, cell-based.
Assay [18] deals with HL-60. As to the kind of experiment: Induction of apoptosis in human HL60 cells assessed as increase in cytochrome c release from mitochondria to cytosol after 24 hrs by Western blotting. It counts as functional, cell-based.
Assay [19] deals with HL-60. Nature of the assay: Induction of apoptosis in human HL60 cells assessed as increase of caspase-3-mediated Ac-DEVD-pNA cleavage at 10 uM after 12 hrs. It counts as functional, cell-based.
Assay [20] relates to HL-60. Nature of the assay: Induction of apoptosis in human HL60 cells assessed as increase of caspase-3-mediated Ac-DEVD-pNA cleavage at 10 uM after >12 hrs. The format is functional, cell-based.
Assay [21] relates to HL-60. As to the kind of experiment: Induction of apoptosis in human HL60 cells assessed as increase of ROS production using H2DCFDA after 3 hrs by flow cytometry. It counts as functional, cell-based.
Assay [22] has as its system HL-60. As to the kind of experiment: Induction of apoptosis in human HL60 cells assessed as increase of ROS production using H2DCFDA after 3 hrs by flow cytometry in presence of N-acetylcysteine. It counts as functional, cell-based.
The subject of assay [23] is HL-60. Nature of the assay: Cell cycle arrest in human HL60 cells assessed as accumulation at sub-G1 phase at 10 uM after 24 hrs using propidium iodide staining by flow cytometry in presence of N-acetylcysteine. The format is functional.

In the case of `Cc1cc(O)c2c(c1)C(=O)C=CC2=O` [RAMENTACEONE], the result in the assay on HL-60 [1], in the assay on HL-60 [2], in the assay with HL-60 [3], in the assay on HL-60 [4], with HL-60 [12] and in the assay on HL-60 [13] was Active. For the same molecule, the outcome in the assay with HL-60 [17] and in the assay with HL-60 [19] was Active. Further, the Activity result was “Dose-dependent effect” with HL-60 [5]; 10.3% in the assay with HL-60 [6]; 17.1% in the assay with HL-60 [7]; 12.6% in the assay on HL-60 [8]; 27.5% with HL-60 [9]; “Dose-dependent effect” in the assay on HL-60 [10]. Besides, the Activity entry in the assay on HL-60 [11] was “tde”; in the assay on HL-60 [14], “Dose-dependent effect”; in the assay with HL-60 [15], “Dose-dependent effect”; in the assay with HL-60 [16], “Dose-dependent effect”; with HL-60 [18], “Dose-dependent effect”; in the assay with HL-60 [21] it was “Dose-dependent effect”. The Activity with HL-60 [23] stood at 12.3%. This molecule also had an IC50 in the assay on HL-60 [5] (HL-60, 24 h) of 8.75 µM. Also, the outcome in the assay on HL-60 [20] and with HL-60 [22] was inactive.
